Reference: publication PMC8291583, “Design, synthesis, and evaluation of 3,7-substituted coumarin derivatives as multifunctional Alzheimer’s disease agents” (Journal of Enzyme Inhibition and Medicinal Chemistry, 2021)
Read-outs that look alike come from different tables or passages of the source.

How the values were obtained:
[1] = target: recombinant human MAO-B (Homo sapiens, UniProt P27338); assay: MAO-B fluorometric assay (kynuramine); format: biochemical
Procedure: . The stock was then further diluted by factors of ten to produce solutions of 1 mM, 100 µM, 10 µM, 1 µM, and 0.1 µM which would correspond to concentrations of 100 µM, 10 µM, 1 µM, 0.1 µM, and 0.01 µM in the final reaction mixture. A potassium phosphate buffer ([…] 100 mM, pH 7.4, 0.9% w/v NaCl) was prepared and refrigerated until further use. The enzyme stock solutions were prepared by dissolving 2.5 mg of enzyme in 33.33 ml of phosphate buffer to produce stock solutions of 0.075 mg/ml which were stored in aliquots at −80 °C until use. […]. The substrate was prepared by dissolving kynuramine in potassium buffer and was prepared as two separate concentrations; […]. The fresh substrate was prepared on the day of the assay. The assay was carried out in 2 ml Eppendorf vials. […] Following this, 25 µl of the enzyme stock were added to each vial in 10 s intervals and the vials were incubated at 37 °C for 10 min. After this time period 15 µl of kynuramine (750 µM for MAO-A and 500 µM for MAO-B) was added at 10 s intervals and further incubated for 20 min. To stop the reaction at the end of this time 150 hx00B5;l of 2 N NaOH was added and the mixture was shaken. Using a micropipette 80 hx00B5;l of the mixture was transferred to a well in a black 96 well plate. The plate was placed in the fluorescent plate reader and read at an excitation/emission wavelength of 310 nm/410 nm. Each assay was run in triplicate and the data were analysed with Graph Pad Prism 8 software (San Diego, USA).
The MAO inhibitory activity of the compounds was assessed using a fluorometric assay with recombinant human MAO-A and human MAO-B enzymes. […].

[2] = target: T1, recombinant human MAO-A (Homo sapiens, UniProt P21397); assay: biochemical
T1 sequence (P21397 1-527): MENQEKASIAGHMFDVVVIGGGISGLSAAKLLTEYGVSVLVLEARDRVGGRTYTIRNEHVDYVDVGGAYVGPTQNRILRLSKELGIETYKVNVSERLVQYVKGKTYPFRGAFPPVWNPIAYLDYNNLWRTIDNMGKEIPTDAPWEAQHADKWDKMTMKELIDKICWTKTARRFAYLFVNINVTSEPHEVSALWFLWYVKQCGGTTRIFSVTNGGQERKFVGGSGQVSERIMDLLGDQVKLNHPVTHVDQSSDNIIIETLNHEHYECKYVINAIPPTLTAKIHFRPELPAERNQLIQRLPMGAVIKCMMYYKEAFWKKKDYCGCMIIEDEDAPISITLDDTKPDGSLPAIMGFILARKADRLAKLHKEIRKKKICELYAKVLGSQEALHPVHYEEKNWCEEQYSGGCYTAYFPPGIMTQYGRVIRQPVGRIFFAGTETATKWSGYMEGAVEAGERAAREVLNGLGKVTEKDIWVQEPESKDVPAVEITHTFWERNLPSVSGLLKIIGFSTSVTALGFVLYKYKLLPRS
Procedure: The stock was then further diluted by factors of ten to produce solutions of 1 mM, 100 µM, 10 µM, 1 µM, and 0.1 µM which would correspond to concentrations of 100 µM, 10 µM, 1 µM, 0.1 µM, and 0.01 µM in the final reaction mixture. A potassium phosphate buffer ([…] 100 mM, pH 7.4, 0.9% w/v NaCl) was prepared and refrigerated until further use. The enzyme stock solutions were prepared by dissolving 2.5 mg of enzyme in 33.33 ml of phosphate buffer to produce stock solutions of 0.075 mg/ml which were stored in aliquots at −80 °C until use. Once in the final reaction mixture, this enzyme solution will have a concentration of 0.0075 mg/ml. […] The fresh substrate was prepared on the day of the assay. The assay was carried out in 2 ml Eppendorf vials. […] Following this, 25 µl of the enzyme stock were added to each vial in 10 s intervals and the vials were incubated at 37 °C for 10 min. […] To stop the reaction at the end of this time 150 hx00B5;l of 2 N NaOH was added and the mixture was shaken. Using a micropipette 80 hx00B5;l of the mixture was transferred to a well in a black 96 well plate. The plate was placed in the fluorescent plate reader and read at an excitation/emission wavelength of 310 nm/410 nm. Each assay was run in triplicate and the data were analysed with Graph Pad Prism 8 software (San Diego, USA).
The MAO inhibitory activity of the compounds was assessed using a fluorometric assay with recombinant human MAO-A and human MAO-B enzymes.

[3] = target: T2, BuChE from equine serum (Equus caballus, UniProt P81908); assay: biochemical
T2 construct: 12 U/ml BuChE from equine serum; from tissue; host or cells: equine serum
Procedure: (§1) Cholinesterase activity is determined using a modified colorimetric method first described by Ellman[40]. […] The stock was then further diluted by factors of ten to produce solutions of 1 mM, 100 µM, 10 µM, 1 µM, and 0.1 µM which corresponds to concentrations of 100 µM, 10 µM, 1 µM, 0.1 µM, and 0.01 µM in the final reaction mixture. The test concentrations were stored in the refrigerator until the day of the assay. Trisma HCl buffer (50 mM, adjusted to pH 8 with 2 N NaOH) was prepared as the buffer and used to prepare enzyme stock solution (22 U/ml for Electrophorus electricus AChE and 12 U/ml BuChE from equine serum), 15 mM acetylthiocholine iodide, 15 mM S-butyrylthiocholine iodide and 1.5 mM DTNB (Ellman’s reagent). The enzyme stock solution was stabilised with 1% bovine serum albumin and stored in aliquots at −80 °C. A clear, flat bottom 96 well plate was used to perform the experiments with each concentration performed in triplicate. Prior to the assay the background absorbance for each compound at the different test concentrations was measured and accounted for when reading the final absorbance. […] Following this, 30 µl of the substrate was added to each well simultaneously using a multi pipette. […] A one-sample t-test was performed on the data to test for statistical significance.

[4] = target: Electrophorus electricus AChE (Electrophorus electricus, UniProt O42275); assay: biochemical
Procedure: as §1

[5] = tested on: MPP+-compromised SH-SY5Y neuroblastoma cells; format: cell-based, human
Procedure: SH-SY5Y cells were seeded onto a 96-well plate in a growth medium at a density of 10,000 cells/well. Cells were pre-treated with test compounds at a concentration of 10 µM and thereafter 2000 µM MPP^+ following a 2-h incubation period. Afterwards, cells were incubated for 24 h and MTT colorimetric assay was used to measure cell viability relative to untreated control. To determine the data’s statistical significance, the One-way ANOVA Turkey’s multiple comparison test was conducted on all experimental replicates using GraphPad Prism® 8 (San Diego, USA).
The SH-SY5Y cells were pre-treated with 10 µM of the test compounds for 2 h followed by the addition of 2000 µM of MPP^+.

[6] = kynuramine 30 µM, 37 °C, read-out: MAO-B IC50
[7] = kynuramine 45 µM, 37 °C, read-out: MAO-A IC50
[8] = Ellman method, 25 °C, pH 8, read-out: BuChE IC50
[9] = Ellman method, 25 °C, pH 8, read-out: AChE IC50
[10] = 10 µM compound, 2 h pre-treatment, 2000 µM MPP+, 24 h, SH-SY5Y

Sequence of recombinant human MAO-B (P27338 whole entry): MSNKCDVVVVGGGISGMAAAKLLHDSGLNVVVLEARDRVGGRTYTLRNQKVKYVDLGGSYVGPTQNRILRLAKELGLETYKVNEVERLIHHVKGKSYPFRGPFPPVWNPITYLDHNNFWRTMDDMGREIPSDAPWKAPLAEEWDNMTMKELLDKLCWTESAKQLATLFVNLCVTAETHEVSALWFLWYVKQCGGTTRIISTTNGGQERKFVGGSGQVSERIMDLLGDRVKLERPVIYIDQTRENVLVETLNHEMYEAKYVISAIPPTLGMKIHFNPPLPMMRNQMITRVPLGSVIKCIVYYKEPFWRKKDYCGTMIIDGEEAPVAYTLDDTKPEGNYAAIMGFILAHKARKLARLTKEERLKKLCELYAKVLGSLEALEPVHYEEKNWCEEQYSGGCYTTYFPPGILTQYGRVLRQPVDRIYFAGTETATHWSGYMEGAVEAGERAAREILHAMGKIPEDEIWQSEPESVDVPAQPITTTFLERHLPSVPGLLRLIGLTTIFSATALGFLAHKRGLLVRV
T2 sequence (P81908 whole entry): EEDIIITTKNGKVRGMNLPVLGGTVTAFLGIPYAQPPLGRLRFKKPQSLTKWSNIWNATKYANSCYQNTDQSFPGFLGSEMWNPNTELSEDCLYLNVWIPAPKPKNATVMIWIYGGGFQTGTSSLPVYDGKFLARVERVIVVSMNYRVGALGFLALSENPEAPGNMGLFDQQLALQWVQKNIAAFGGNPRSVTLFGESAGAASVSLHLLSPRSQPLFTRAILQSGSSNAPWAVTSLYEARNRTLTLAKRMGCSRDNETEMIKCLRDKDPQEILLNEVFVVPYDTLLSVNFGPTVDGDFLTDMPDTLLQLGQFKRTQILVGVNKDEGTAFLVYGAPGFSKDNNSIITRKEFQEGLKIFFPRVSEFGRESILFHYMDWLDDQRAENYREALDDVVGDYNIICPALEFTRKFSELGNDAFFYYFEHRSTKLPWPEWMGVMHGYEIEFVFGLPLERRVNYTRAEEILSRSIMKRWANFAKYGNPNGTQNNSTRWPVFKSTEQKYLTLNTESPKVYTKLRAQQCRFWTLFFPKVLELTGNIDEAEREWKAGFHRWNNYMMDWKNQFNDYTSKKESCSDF
Sequence of Electrophorus electricus AChE (O42275 24-633): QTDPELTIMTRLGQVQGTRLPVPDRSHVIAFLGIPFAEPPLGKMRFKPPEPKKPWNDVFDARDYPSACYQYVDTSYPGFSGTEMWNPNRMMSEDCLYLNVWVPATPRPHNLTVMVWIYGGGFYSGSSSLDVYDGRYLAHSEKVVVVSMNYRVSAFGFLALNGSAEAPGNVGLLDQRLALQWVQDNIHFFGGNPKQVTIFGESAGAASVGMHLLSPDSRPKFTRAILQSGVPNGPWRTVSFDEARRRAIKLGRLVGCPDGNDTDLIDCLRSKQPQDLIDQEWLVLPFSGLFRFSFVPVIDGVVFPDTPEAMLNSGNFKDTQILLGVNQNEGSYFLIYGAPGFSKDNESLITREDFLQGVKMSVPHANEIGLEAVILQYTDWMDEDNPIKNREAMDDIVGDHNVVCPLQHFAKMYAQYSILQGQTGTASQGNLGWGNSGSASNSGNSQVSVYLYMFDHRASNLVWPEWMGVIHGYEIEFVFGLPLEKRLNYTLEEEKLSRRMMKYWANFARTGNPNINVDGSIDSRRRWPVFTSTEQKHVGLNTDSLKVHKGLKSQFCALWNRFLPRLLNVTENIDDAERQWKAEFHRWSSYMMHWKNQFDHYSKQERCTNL

SMILES	SI MAO-B (MAO-B selectivity index = IC50(MAO-A)/IC50(MAO-B)) [1]	IC50 [1, 6] [µM]	IC50 [2, 7] [µM]	IC50 [3, 8] [µM]	IC50 [4, 9] [µM]	MPP+ neuroprotection (difference in percentage cell viability vs MPP+ only treated cells) [5, 10] [%]	IC50 [1] [µM]	IC50 ([2]; MAO-A IC50) [µM]	IC50 [3] [µM]	IC50 ([4]; AChE IC50) [µM]	MPP+ neuroprotection (difference in percentage cell viability vs MPP+ only treated cells) [5] [%]
Cc1cc2ccc(OCCc3ccccc3)cc2oc1=O [Compound 2, 3-methyl-7-(2-phenylethoxy)-2H-1-benzopyran-2-one]	47.7	0.014	0.658	> 100	> 100	24.85					
Cc1cc2ccc(O)cc2oc1=O [Compound 1, 7-hydroxy-3-methyl-2H-1-benzopyran-2-one]	2.04						16.4	33.4	20.2	> 100	26.24
CCN(CC)C(=O)Oc1ccc2cc(C)c(=O)oc2c1 [Compound 3, 3-methyl-2-oxo-2H-1-benzopyran-7-yl-diethylcarbamate]	5.67	0.498	2.82	> 100	> 100	15.59					
